PMC7076875 (2020)

System: apt 32 (DNA, aptamer) AAAAAAAAAAAAGGGCACGTGTTGTCTCTCTGTGTCTCGTGCCC
Assay: lateral flow strip, competition with complementary strand
Conditions: 120 mM NaCl, 5 mM KCl, 200 mM MgCl2; 10 mM Tris pH 7.4, 5% methanol, room temperature; immobilised probe 2 competes; tested at 100 ng/mL

With `C[C@@H]1Cc2c(Cl)cc(C(=O)N[C@@H](Cc3ccccc3)C(=O)O)c(O)c2C(=O)O1` as the compound, how does the binding read?
The binding was “no”.

Which binding does the source give for `CCCC[C@@H](C)[C@@H](OC(=O)C[C@@H](CC(=O)O)C(=O)O)[C@H](C[C@@H](C)C[C@H](O)CCCC[C@@H](O)C[C@H](O)[C@H](C)N)OC(=O)C[C@@H](CC(=O)O)C(=O)O` here?
Its binding is “no”.

With `C[C@H]1CCCC(=O)CCC/C=C/c2cc(O)cc(O)c2C(=O)O1` as the compound, how does the binding read?
Its binding is “no”.
